This note sets out measurements from patent US6589970B2, “6-(aryl-amido or aryl-amidomethyl)-naphthalen-2-yloxy-acidic derivatives as inhibitors of plasminogen activator inhibitor type-1 (PAI-1)” (Wyeth, priority 2001, dated 2003).

Structures can show the parent of a compound that is named as a salt.

In this test the target is T1, recombinant human plasminogen activator inhibitor-1 (PAI-1) (Homo sapiens, UniProt P05121).
T1 construct: purchased Molecular Innovations, Royal Oak, Mich
The test can be described thus: Primary Screen for the PAI-1 Inhibition. It is filed as biochemical. The following applies: for inhibition at 25 µM / % Inhib. 25 μM: 25 μM test compound; for inhibition at 25 µM: read-out: % Inhib. 25 μM; for inhibition at 100 µM / % Inhib. 100 μM: 100 μM test compound; for inhibition at 100 µM: read-out: % Inhib. 100 μM. As to the method:
Test compounds are dissolved in DMSO at a final concentration of 10 mM, then diluted 100× in physiologic buffer. The inhibitory assay is initiated by the addition of the test compound (1-100 μM final concentration, maximum DMSO concentration of 0.2%) in a pH 6.6 buffer containing 140 nM recombinant human plasminogen activator inhibitor-1 (PAI-1; Molecular Innovations, Royal Oak, Mich.). Following a 1 hour incubation at room temperature, 70 nM of recombinant human tissue plasminogen activator (tPA) is added, and the combination of the test compound, PAI-1 and tPA is incubated for an additional 30 minutes. Following the second incubation, Spectrozyme-tPA (American Diagnostica, Greenwich, Conn.), a chromogenic substrate for tPA, is added and absorbance read at 405 nm at 0 and 60 minutes. Relative PAI-1 inhibition is equal to the residual tPA activity in the presence of the test compound and PAI-1. Control treatments include the complete inhibition of tPA by PAI-1 at the molar ratio employed (2:1), and the absence of any effect of the test compound on tPA alone.

T1 sequence (P05121 24-402): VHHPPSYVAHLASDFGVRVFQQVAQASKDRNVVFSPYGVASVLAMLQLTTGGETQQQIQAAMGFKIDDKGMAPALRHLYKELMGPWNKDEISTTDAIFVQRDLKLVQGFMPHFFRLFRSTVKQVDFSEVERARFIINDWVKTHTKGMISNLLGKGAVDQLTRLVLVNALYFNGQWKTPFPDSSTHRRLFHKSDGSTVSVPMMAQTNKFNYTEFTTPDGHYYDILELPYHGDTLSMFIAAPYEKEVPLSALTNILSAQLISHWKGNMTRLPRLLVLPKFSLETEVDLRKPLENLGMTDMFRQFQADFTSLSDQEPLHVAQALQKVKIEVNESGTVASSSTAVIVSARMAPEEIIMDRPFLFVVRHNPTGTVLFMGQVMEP

Regarding `O=C(O)COc1ccc2cc(NC(=O)C3(c4ccc(Cl)cc4)CCCC3)ccc2c1` [Example 75, (6-{[1-(4-Chloro-phenyl)-cyclopentanecarbonyl]-amino}-naphthalen-2-yloxy)-acetic acid], the inhibition at 25 µM came to 1% and the inhibition at 100 µM is 55%.

Regarding `CCCc1ccc(-c2ccc(C(=O)N(Cc3ccccc3)Cc3ccc4c(Br)c(OC(Cc5ccccc5)C(=O)O)ccc4c3)cc2)cc1` (centres unmarked) [Example 70, 2-(6-{[Benzyl-(4′-propyl-biphenyl-4-carbonyl)-amino]-methyl}-1-bromo-naphthalen-2-yloxy)-3-phenyl propionic acid], the inhibition at 25 µM worked out at 17% and the inhibition at 100 µM is 81%.

For `Cc1c(C(=O)N(C)Cc2ccc3c(Br)c(OCC(Cc4ccccc4)C(=O)O)ccc3c2)oc2ccccc12` (centres unmarked) [Example 42, Sodium; 2-benzyl-3-(1-bromo-6-{[methyl-(3-methyl-benzofuran-2-carbonyl)-amino]-methyl}-naphthalen-2-yloxy)-propionate], the inhibition at 25 µM came out at 63% and the inhibition at 100 µM was 79%.

On to `O=C(O)COc1ccc2cc(NC(=O)c3ccc(-c4cccc(C(F)(F)F)c4)o3)ccc2c1` [Example 74, (6-{[5-(3-Trifluoromethyl-phenyl)-furan-2-carbonyl]-amino}-naphthalen-2-yloxy)-acetic acid], for which the inhibition at 25 µM was 20% and the inhibition at 100 µM was 59%.

For the molecule `CN(Cc1ccc2c(Br)c(OC(Cc3ccccc3)C(=O)O)ccc2c1)C(=O)c1ccc(C2CCCCC2)cc1` (centres unmarked) [Example 61, 2-(1-Bromo-6-{[(4cyclohexyl-benzoyl)-methyl-amino]-methyl}-naphthalen-2-yloxy)-3-phenyl-propionic acid], the inhibition at 25 µM was 24% and the inhibition at 100 µM was determined as 75%.

Consider `O=C(O)COc1ccc2cc(NC(=O)c3cc(-c4ccccc4Cl)oc3C(F)(F)F)ccc2c1` [Example 73, (6-{[5-(2-Chloro-phenyl)-2-trifluoromethyl-furan-3-carbonyl]-amino}naphthalen-2-yloxy)-acetic acid], for which the inhibition at 25 µM was 23% and the inhibition at 100 µM stood at 65%.

As to `O=C(O)COc1ccc2cc(CNC(=O)c3cc(-c4ccc(Cl)cc4)oc3C(F)(F)F)ccc2c1` [Example 11, [6-({[5-(4-Chloro-phenyl)-2-trifluoromethyl-furan-3-carbonyl]-amino}-methyl)-naphthalen-2-yloxy]-acetic acid], the inhibition at 100 µM worked out at 32%.

Regarding `CCCc1c(C(=O)NCc2ccc3c(Br)c(OCC(=O)O)ccc3c2)cnn1-c1ccccc1` [Example 15, (1-Bromo-6-{[(1-phenyl-5-propyl-1H-pyrazole-4-carbonyl)-amino]-methyl}-naphthalen-2-yloxy)-acetic acid], the inhibition at 25 µM turned out to be 5% and the inhibition at 100 µM was 92%.

Turning to `CN(Cc1ccc2c(Br)c(OCc3nnn[nH]3)ccc2c1)C(=O)c1ccc(Oc2cc(Cl)cc(Cl)c2)o1` [Example 38, 5-(3,5-Dichloro-phenoxy)-furan-2-carboxylic acid [5-bromo-6-(1H-tetrazol-5-ylmethoxy)-naphthalen-2-ylmethyl]-methyl-amide], the inhibition at 25 µM is 47% and the inhibition at 100 µM came to 81%.

For the molecule `CCCCc1oc2ccccc2c1C(=O)NCc1ccc2c(Br)c(OCC(=O)O)ccc2c1` [Example 19, Sodium; (1-bromo-6-{[(2-butyl-benzofuran-3-carbonyl)-amino]-methyl}-naphthalen-2-yloxy)-acetate], the inhibition at 100 µM came out at 32%.

With `O=C(O)COc1ccc2cc(CNC(=O)C3(c4ccccc4)CCCC3)ccc2c1` [Example 87, (6-{[(1-Phenyl-cyclopentanecarbonyl)-amino]-methyl}-naphthalen-2-yloxy)-acetic acid], the inhibition at 100 µM turned out to be 32%.

As for `CCc1oc2ccccc2c1C(=O)NCc1ccc2c(Br)c(OC(Cc3ccccc3)C(=O)O)ccc2c1` (centres unmarked) [Example 58, 2-(1-Bromo-6-{[(2-ethyl-benzofuran-3-carbonyl)-amino]-methyl}-naphthalen-2-yloxy)-3-phenyl-propionic acid], the inhibition at 100 µM was determined as 29%.

As for `CC(C)(C)c1cc(C(=O)Nc2ccc3cc(OCC(=O)O)ccc3c2)cc(C(C)(C)C)c1` [Example 77, [6-(3,5-Di-tert-butyl-benzoylamino)-naphthalen-2yloxy]-acetic acid], the inhibition at 25 µM turned out to be 27% and the inhibition at 100 µM is 51%.

As to `O=C(O)COc1ccc2cc(CNC(=O)c3cc(-c4ccc(C(F)(F)F)cc4)oc3C(F)(F)F)ccc2c1` [Example 82, [6-({[2-Trifluoromethyl-5-(4-trifluoromethyl-phenyl)-furan-3-carbonyl]-amino}methyl)-naphthalen-2-yloxy]-acetic acid], the inhibition at 25 µM stood at 9% and the inhibition at 100 µM was determined as 68%.

`CCCCc1oc2ccccc2c1C(=O)N(C)Cc1ccc2c(Br)c(OC(Cc3ccccc3)C(=O)O)ccc2c1` (centres unmarked) [Example 62, 2-(1-Bromo-6-{[(2-butyl-benzofuran-3-carbonyl)-methyl-amino]-methyl}naphthalen-2-yloxy)-3-phenyl-propionic acid]: the inhibition at 25 µM came out at 1% and the inhibition at 100 µM stood at 84%.

Turning to `O=C(O)COc1ccc2cc(CNC(=O)C3(c4ccc(Cl)cc4)CCCC3)ccc2c1` [Example 84, [6-({[1-(4-Chloro-phenyl)-cyclopentanecarbonyl]-amino}-methyl)-naphthalen-2-yloxy]-acetic acid], the inhibition at 100 µM came to 34%.

In the case of `O=C(O)COc1ccc2cc(CNC(=O)c3cnn(-c4ccc(Cl)cc4)c3C(F)(F)F)ccc2c1Br` [Example 16, [1-Bromo-6-({[1-(4-chloro-phenyl)-5-trifluoromethyl-1H-pyrazole-4-carbonyl]-amino}-methyl)-naphthalen-2-yloxy]-acetic acid], the inhibition at 25 µM is 12% and the inhibition at 100 µM turned out to be 85%.

`O=C(O)COc1ccc2cc(CNC(=O)c3cc4ccccc4o3)ccc2c1` [Example 1]: the “% Inhib. 100 μM” value was 23%.

On to `CCCCc1c(C(=O)N(C)Cc2ccc3c(Br)c(OCC(Cc4ccccc4)C(=O)O)ccc3c2)oc2ccccc12` (centres unmarked) [Example 40, 2-Benzyl-3-(1-bromo-6-{[(3-butyl-benzofuran-2-carbonyl)-methyl-amino]-methyl}-naphthalen-2-yloxy)-propionic acid], for which the inhibition at 25 µM turned out to be 60% and the inhibition at 100 µM turned out to be 96%.

As to `O=C(O)C(Cc1ccccc1)Oc1ccc2cc(CN(Cc3ccccc3)C(=O)c3ccc(C4CCCCC4)cc3)ccc2c1Br` (centres unmarked) [Example 71], the “% Inhib. 25 μM” value came out at 47% and the “% Inhib. 100 μM” value was determined as 78%.

In the case of `CCCc1c(C(=O)NCc2ccc3cc(OCC(=O)O)ccc3c2)cnn1-c1ccccc1` [Example 12, (6-{[(1-phenyl-5-propyl-1H-pyrazole-4-carbonyl)-amino]-methyl}-naphthalen-2-yloxy)-acetic acid], the inhibition at 25 µM came to 5% and the inhibition at 100 µM amounted to 66%.

`O=C(O)COc1ccc2cc(NC(=O)C3(c4ccc(Cl)cc4)CCCCC3)ccc2c1` [Example 79, (6-{[1-(4-Chloro-phenyl)-cyclohexanecarbonyl]-amino}-naphathalen-2-yloxy)-acetic acid]: the “% Inhib. 25 μM” value was 19% and the “% Inhib. 100 μM” value came out at 50%.

On to `O=C(NCc1ccc2c(Br)c(OC(Cc3ccccc3)C(=O)O)ccc2c1)c1ccc(-c2cccc(C(F)(F)F)c2)o1` (centres unmarked) [Example 60], for which the “% Inhib. 100 μM” value was determined as 30%.

In the case of `CC(C)(C)c1cc(C(=O)NCc2ccc3cc(OCC(=O)O)ccc3c2)cc(C(C)(C)C)c1` [Example 86, {6-[(3,5-Di-tert-butyl-benzoylamino)methyl]-naphthalen-2-yloxy}-acetic acid], the inhibition at 100 µM is 33%.

Turning to `O=C(O)COc1ccc2cc(NC(=O)c3cc(-c4ccc(-c5ccccc5)cc4)oc3C(F)(F)F)ccc2c1` [Example 78, {6-[(5-Biphenyl-4-yl-2-trifluoromethyl-furan-3-carbonyl)-amino]-naphthalen-2-yloxy}-acetic acid], the inhibition at 25 µM is 24% and the inhibition at 100 µM was 51%.

For the molecule `CCCc1c(C(=O)N(C)Cc2ccc3c(Br)c(OC(Cc4ccccc4)C(=O)O)ccc3c2)cnn1-c1ccccc1` (centres unmarked) [Example 66, 2-(1-Bromo-6-{[methyl-(1-phenyl-5-propyl-1H-pyrazole-4-carbonyl)-amino]-methyl}-naphthalen-2-yloxy)-3-phenyl-propionic acid], the inhibition at 25 µM was 46% and the inhibition at 100 µM is 95%.

As for `CCCCc1oc2ccccc2c1C(=O)Nc1ccc2cc(OCC(=O)O)ccc2c1` [Example 4, {6-[(2-Butyl-benzofuran-3-carbonyl)-amino]-naphthalen-2-yloxy}-acetic acid sodium salt], the inhibition at 25 µM was determined as 3% and the inhibition at 100 µM stood at 66%.

In the case of `O=C(NCc1ccc2cc(OCc3nn[nH]n3)ccc2c1)c1cc2ccccc2o1` [Example 2], the “% Inhib. 25 μM” value was found to be 21% and the “% Inhib. 100 μM” value is reported as 52%.

Consider `CCCc1c(C(=O)NCc2ccc3cc(OCC(=O)O)ccc3c2)cnn1-c1ccc(Cl)cc1` [Example 13, [6-({[1-(4-Chloro-phenyl)-5-propyl-1H-pyrazole-4-carbonyl]-amino}-methyl)-naphthalen-2-yloxy]-acetic acid], for which the inhibition at 25 µM came out at 5% and the inhibition at 100 µM came to 52%.
